# Results from PMC5396265 (Angewandte Chemie (International Ed. in English), 2017).
# Target: SPM-1 (São Paulo metallo-β-lactamase; SPM-1* for 19F-labelled variants) (Pseudomonas aeruginosa, UniProt Q8G9Q0, Y58C)
# Details: Cys58 labelled with CH2COCF3 (BTFA); meropenem up to 400 uM, 40 uM protein, 50 mM Tris pH 7.5, 9:1 H2O/D2O; product formed in situ; presence of this pair in Table S3 not seen
# SPM-1 (São Paulo metallo-β-lactamase; SPM-1* for 19F-labelled variants), sequence (Q8G9Q0 29-276 Y58C): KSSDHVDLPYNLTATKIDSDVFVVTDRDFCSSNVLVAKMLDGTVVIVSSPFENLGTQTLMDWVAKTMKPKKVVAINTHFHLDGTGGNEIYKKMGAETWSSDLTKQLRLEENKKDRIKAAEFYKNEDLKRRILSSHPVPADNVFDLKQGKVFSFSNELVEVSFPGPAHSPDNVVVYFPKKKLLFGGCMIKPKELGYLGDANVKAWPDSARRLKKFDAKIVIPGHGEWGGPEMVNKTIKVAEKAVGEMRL
compound,measurement,value
CC(O)C(C(=O)O)C1NC(C(=O)O)=C(SC2CNC(C(=O)N(C)C)C2)C1C (stereo not shown) [hydrolyzed meropenem],Kd,100 ± 10 µM
